Source: patent US20150191484A1, “NOVEL COMPOUNDS HAVING A TETRACYCLIC IRIDOID SKELTON AND AN ANTI-TRYPANOSOMAL AGENT COMPRISING THE SAME AS AN ACTIVE INGREDIENT” (NATIONAL UNIVERSITY CORPORATION TOKYO MEDICAL AND DENTAL …, priority 2014, published 2015)
Entries after “also recorded” stand apart in the source; their conditions may differ.

Columns and labels:
[1] = test system: Caco2 (colon cancer); test: MTT cytotoxicity assay, Caco2; type: cell-based, human; conditions: IC50 against Caco2 / IC50 against T. brucei
Description: (§1) The cytotoxic activity of natural products against mammalian cells is an important point in the search for active compounds with biological activity. […] In order to confirm the selective and potent anti-trypanosomal activity of ML-2-2 and ML-2-3, we examined their cytotoxicity in a panel of human cell lines including two human fibroblastic and 8 human cancer-derived cell lines. Cells were seeded in 96-well microplates and incubated with ML-2-2 and ML-2-3 for 48 h at 37° C. in a 5% CO2 humidified incubator. The viabilities of cells were determined with the MTT (3-(4,5-dimethylthiazol-2-yl)-2-5-diphenyltetrazolium bromide) assay. The selectivity index (SI) was determined using the following equation: IC50 against human cells/IC50 against T. brucei. The IC50 values of ML-2-3 were higher than those of ML-2-2 in all the cell lines examined. […] The SI of ML-2-2 indicates values below 1.00 in most cell lines. On the other hand, SI values of ML-2-3 were much higher than those of ML-2-2 in all tested cell lines.

[2] = MTT cytotoxicity assay, Caco2; type: cell-based, human; conditions: human, Caco2 colon cancer cells; Caco2 colon cancer, 48 h, MTT
Description: as §1

[3] = test system: Trypanosoma cells; test: Cell cycle assay (FACS); type: cell-based, Trypanosoma brucei brucei; conditions: four times of IC50: 15 μM ML-2-3, 5 μM ML-2-2; 24 hours
Description: (§2) The GUTat 3.1 strain of the bloodstream forms of T. b. brucei parasites was used for this study. Parasites were cultured in vitro according to the conditions established by Yabu et al, 1998.
(§3) Parasites were used when they reached a confluent concentration of 1×10^6 parasites/ml. Estimation of parasitemia was done with the Neubauer's counting chamber. Parasites were diluted to a concentration of 3×10^5 parasites/ml with HMI-9 medium and used for the various experiments.
This assay was performed to investigate any abnormal change in the parasites' cell cycle which may be caused by extracts/compounds with trypanocidal effect. […] The parasites were collected and transferred into 15 ml centrifuge tubes and centrifuged at 1700 rpm for 10 min, after which the supernatant was discarded. The pelleted parasites were re-suspended in 5 ml PBS solution and vortexed to form a suspension. The parasite suspension was centrifuged at 1700 rpm for 10 min and the supernatant discarded. The pelleted parasites were re-suspended in 1.5 ml of PBS and vortexed thoroughly before adding 3.5 ml absolute EtOH gradually to a final volume of 5 ml 70% EtOH. The parasites were then fixed at −20° C. for 1 h. The cell suspension was then centrifuged at 1700 rpm for 10 min and the supernatant discarded. Pelleted parasites were re-suspended in 200 μl of Guava Cell Cycle reagent, which has Propidium Iodide as its main constituent and incubated at room temperature for 30 min. The solution was transferred to wells of 96-well plate. The well contents were then subjected to FACS analysis using the Millipore guava easyCyte 5HT FACS machine, for the sorting of parasites according to the manufacturer's instructions.

[4] = test system: NB1RGB (normal fibroblast); test: MTT cytotoxicity assay, NB1RGB; type: cell-based, human; conditions: IC50 against NB1RGB / IC50 against T. brucei
Description: as §1

[5] = MTT cytotoxicity assay, NB1RGB; type: cell-based, human; conditions: human, NB1RGB normal fibroblast cells; NB1RGB normal fibroblast, 48 h, MTT
Description: as §1

[6] = test system: Trypanosoma cells; test: Nexin apoptosis assay (FACS); type: cell-based, Trypanosoma brucei brucei
Description: as §2, §3
This assay was performed to detect both Phosphatidylserine (PS) signal and fracture of nuclear membraneas markers of apoptosis. Seeding and incubation of parasites with plant materials (extracts, fractions and compounds) were done under the same conditions in Alamar Blue assay. […] The contents of the wells were then subjected to FACS analysis using, the Millipore guava easyCyte 5HT FACS machine for the sorting and estimation of apoptotic parasites according to the manufacturer's instructions.

[7] = test system: HF-19 (normal fibroblast); test: MTT cytotoxicity assay, HF-19; type: cell-based, human; conditions: IC50 against HF-19 / IC50 against T. brucei
Description: as §1

[8] = MTT cytotoxicity assay, HF-19; type: cell-based, human; conditions: human, HF-19 normal fibroblast cells; HF-19 normal fibroblast, 48 h, MTT
Description: as §1

[9] = test system: KATOIII (stomach cancer); test: MTT cytotoxicity assay, KATOIII; type: cell-based, human; conditions: IC50 against KATOIII / IC50 against T. brucei
Description: as §1

[10] = MTT cytotoxicity assay, KATOIII; type: cell-based, human; conditions: human, KATOIII stomach cancer cells; KATOIII stomach cancer, 48 h, MTT
Description: as §1

[11] = test system: GUTat 3.1 strain of the bloodstream forms of T. b. brucei parasites; test: Alamar Blue assay (trypanocidal activity); type: cell-based, Trypanosoma brucei brucei; conditions: Trypanosoma brucei, 48 h, T. b. brucei, Alamar Blue, 48 h; read-out: IC50 of anti-trypanosomal activity
Description: as §2, §3
The Alamar Blue assay was carried out in a 96-well plate. About 1.5×10^4 Parasites were seeded with varied concentrations of the Morinda lucida crude extract, ranging from as low as 0.78 μg/ml to as high as 200 μg/ml, in a ratio of 1:1 in 100 μl volume per well. Berberine, a compound known as anti-trypanocidal agent, was used as a positive control. […] The parasites were incubated with the plant extracts for 24 hours at 37° C. and under 5% CO2. After 24 hours, 10% Alamar Blue dye was added to each well and re-incubated for another 24 hours under the same conditions but in darkness. After a total of 48 hours, the plate was read for absorbance at 540 nm using the TECAN Sunrise Wako Spectrophotometer. An Absorbance-concentration (extract) curve was drawn and the IC50 value of the plant extract was extrapolated. Alamar Blue assay was also performed on the fractions and compounds purified from Morinda Lucida to determine their IC50 values. The IC50 values obtained were compared with that of the positive control and trypanocidal activity determined.

[12] = test system: U937 (leukemia); test: MTT cytotoxicity assay, U937; type: cell-based, human; conditions: IC50 against U937 / IC50 against T. brucei
Description: as §1

[13] = MTT cytotoxicity assay, U937; type: cell-based, human; conditions: human, U937 leukemia cells; U937 leukemia, 48 h, MTT
Description: as §1

[14] = test system: HL-60 (leukemia); test: MTT cytotoxicity assay, HL-60; type: cell-based, human; conditions: IC50 against HL-60 / IC50 against T. brucei
Description: as §1

[15] = MTT cytotoxicity assay, HL-60; type: cell-based, human; conditions: human, HL-60 leukemia cells; HL-60 leukemia, 48 h, MTT
Description: as §1

[16] = test system: LoVo (colon cancer); test: MTT cytotoxicity assay, LoVo; type: cell-based, human; conditions: IC50 against LoVo / IC50 against T. brucei
Description: as §1

[17] = MTT cytotoxicity assay, LoVo; type: cell-based, human; conditions: human, LoVo colon cancer cells; LoVo colon cancer, 48 h, MTT
Description: as §1

[18] = test system: HCT-15 (colon cancer); test: MTT cytotoxicity assay, HCT-15; type: cell-based, human; conditions: IC50 against HCT-15 / IC50 against T. brucei
Description: as §1

[19] = MTT cytotoxicity assay, HCT-15; type: cell-based, human; conditions: human, HCT-15 colon cancer cells; HCT-15 colon cancer, 48 h, MTT
Description: as §1

[20] = test system: THP-1 (leukemia); test: MTT cytotoxicity assay, THP-1; type: cell-based, human; conditions: IC50 against THP-1 / IC50 against T. brucei
Description: as §1

[21] = MTT cytotoxicity assay, THP-1; type: cell-based, human; conditions: human, THP-1 leukemia cells; THP-1 leukemia, 48 h, MTT
Description: as §1

[22] = test system: Jurkat (leukemia); test: MTT cytotoxicity assay, Jurkat; type: cell-based, human; conditions: IC50 against Jurkat / IC50 against T. brucei
Description: as §1

[23] = MTT cytotoxicity assay, Jurkat; type: cell-based, human; conditions: human, Jurkat leukemia cells; Jurkat leukemia, 48 h, MTT
Description: as §1

[24] = test system: nuclear DNA of Trypanosoma cells; conditions: reported in literature; cited from earlier work
[25] = test system: Leishmania; conditions: reported in literature; cited from earlier work

SMILES: COC(=O)C1=CO[C@@H]2O[C@H]3/C(=C\c4ccc(O)c(OC)c4)C(=O)O[C@]34C=C[C@H]1[C@H]24 [ML-2-2, (3aS,4aR,4a^1S,7aS,9aS,3E)-methyl 3-(4-hydroxy-3-methoxybenzylidene)-2-oxo-2,3,3a,4a,4a^1,7a-hexahydro-1,4,5-trioxadicyclopenta[a,hi]indene-7-carboxylate]
- SI (selectivity index) [1]: 1.06
- IC50 at 48 h [2]: 1.35 µM
- numbers of cells in the G2 and M phase of cell cycle [3]: did not; also recorded: had no effect
- SI (selectivity index) [4]: 4.73
- IC50 at 48 h [5]: 6.01 µM
- induction of apoptosis ([6]; 6.25 μM, 24-hour incubation): no significant induction of apoptosis
- induction of apoptosis in Trypanosoma cells ([6]; same concentration (6 μM)): did not
- SI (selectivity index) [7]: 9.54
- IC50 at 48 h [8]: 12.1 µM
- SI (selectivity index) [9]: 0.17
- IC50 at 48 h [10]: 0.21 µM
- IC50 [11]: 1.27 µM
- SI (selectivity index) [12]: 3.21
- IC50 at 48 h [13]: 4.08 µM
- SI (selectivity index) [14]: 3.05
- IC50 at 48 h [15]: 3.87 µM
- SI (selectivity index) [16]: 0.09
- IC50 at 48 h [17]: 0.11 µM
- SI (selectivity index) [18]: 12.63
- IC50 at 48 h [19]: 16 µM
- SI (selectivity index) [20]: 5.50
- IC50 at 48 h [21]: 6.98 µM
- SI (selectivity index) [22]: 1.93
- IC50 at 48 h [23]: 2.45 µM

SMILES: N=C(N)c1ccc(OCCCCCOc2ccc(C(=N)N)cc2)cc1 [Pentamidine]
- effect on nuclear DNA of Trypanosoma cells [24]: no effect on nuclear DNA

SMILES: COC(=O)C1=CO[C@H]2O[C@@H]3/C(=C\c4ccc(O)c(OC)c4)C(=O)O[C@@]34C=C[C@@H]1[C@H]24 [Oruwacin]
- anti-Leishmania activity [25]: has anti-Leishmania activity
